What was measured:
HIV-1 = experiment: Anti-HIV-1 activity in TZM-GFP cells (viral LTR-activated GFP expression); type: cell-based; details: for inhibition at 2 µM: Human immunodeficiency virus 1, 2 μM compound; for inhibition at 2 µM / inhibition at 20 µM: HIV-1 MOI=1; for inhibition at 20 µM: Human immunodeficiency virus 1, 20 μM compound; for EC50: Human immunodeficiency virus 1, HIV-1 strain MOI=1, GFP positive cells counted after 48 hours
Experimental: The potency of HIV-1 inhibition by a compound was based on its inhibitory effect on viral LTR-activated GFP expression compared with that of compound-free (DMSO) controls. Briefly, TZM-GFP cells were plated at density of 1×10^4 cells per well in a 96-well plate. 24 hours later, media was replaced with increasing concentrations of compound. 24 hours post treatment, cells were exposed to an HIV-1 strain (MOI=1).
(§1) The cytotoxicity of each compound was also determined in TZM-GFP cells. Cells were plated at a density of 1×10^4 cells per well in a 96-well plate and were continuously exposed to increasing concentrations of a compound for 72 hours. The number of viable cells in each well was determined using a Cell Proliferation Kit II (XTT), and 50% cytotoxicity concentration (CC50) values were determined. All the cell-based assays were conducted in duplicate and in at least two independent experiments. For the EC50 and CC50 dose responses, values were plotted in GraphPad Prism 5 and analyzed with the log (inhibitor) vs. normalized response-variable slope equation. Final values were calculated in each independent assay and the average values were determined. Statistical analysis (calculation of standard deviation) was performed by using Microsoft Excel.

[1] = Cytotoxicity in TZM-GFP cells (XTT); type: cell-based; details: human, 72 hours exposure, XTT
Experimental: as §1

[2] = target: covalently-crosslinked hexameric CA A14C/E45C/W184A/M185A (CA121) (Human immunodeficiency virus type 1 group M subtype B, UniProt P12493, A146C/E177C/M317A/W316A); experiment: Thermal shift assay (TSA), CA hexamer stability; type: binding, HIV-1; details: compound 20 μM, ΔTm=Tm−T0 vs DMSO

SMILES: Cc1cccc2c1NC(=O)C2CC(=O)N[C@@H](Cc1ccccc1)C(=O)N(C)c1ccccc1 (stereo partly drawn) [Example 1, (2S)—N-methyl-2-(2-(7-methyl-2-oxoindolin-3-yl)acetamido)-N,3-diphenylpropanamide]
- inhibition at 2 µM (HIV-1): 0%
- inhibition at 20 µM (HIV-1): 91%
- CC50 at 72 h [1]: > 50 µM
- TSA ΔTm (° C.) [2]: −1.2 °C

SMILES: Cc1cccc2c1NC(=O)C2CC(=O)N[C@@H](Cc1ccccc1)C(=O)N(C)c1ccc(Cl)cc1 (stereo partly drawn) [Example 2, (2S)—N-(4-chlorophenyl)-N-methyl-2-(2-(7-methyl-2-oxoindolin-3-yl)acetamido)-3-phenylpropanamide]
- inhibition at 2 µM (HIV-1): 17%
- inhibition at 20 µM (HIV-1): 96%
- CC50 at 72 h [1]: ~50 µM
- TSA ΔTm (° C.) [2]: −0.4 °C

SMILES: Cc1cccc2c1NC(=O)C2CC(=O)N[C@@H](Cc1ccccc1)C(=O)N(C)c1cccc(Cl)c1 (stereo partly drawn) [Example 3, (2S)—N-(3-chlorophenyl)-N-methyl-2-(2-(7-methyl-2-oxoindolin-3-yl)acetamido)-3-phenylpropanamide]
- EC50 (HIV-1): 3.3 ± 0.3 µM
- CC50 at 72 h [1]: > 100 µM
- TSA ΔTm (° C.) [2]: −1.7 °C

SMILES: Cc1cccc2c1NC(=O)C2CC(=O)N[C@@H](Cc1ccccc1)C(=O)N(C)c1cccc(F)c1 (stereo partly drawn) [Example 4, (2S)—N-(3-fluorophenyl)-N-methyl-2-(2-(7-methyl-2-oxoindolin-3-yl)acetamido)-3-phenylpropanamide]
- inhibition at 2 µM (HIV-1): 0%
- inhibition at 20 µM (HIV-1): 93%
- CC50 at 72 h [1]: > 50 µM
- TSA ΔTm (° C.) [2]: −0.9 °C

SMILES: Cc1ccc(C)c2c1NC(=O)C2CC(=O)N[C@@H](Cc1ccccc1)C(=O)N(C)c1ccccc1 (stereo partly drawn) [Example 5, (2S)-2-(2-(4,7-dimethyl-2-oxoindolin-3-yl)acetamido)-N-methyl-N,3-diphenylpropanamide]
- EC50 (HIV-1): 4.9 ± 0.3 µM
- CC50 at 72 h [1]: > 100 µM
- TSA ΔTm (° C.) [2]: −1.8 °C

SMILES: Cc1ccc(C)c2c1NC(=O)C2CC(=O)N[C@@H](Cc1ccccc1)C(=O)N(C)c1ccc(F)cc1 (stereo partly drawn) [Example 6, (2S)-2-(2-(4,7-dimethyl-2-oxoindolin-3-yl)acetamido)-N-(4-fluorophenyl)-N-methyl-3-phenylpropanamide]
- EC50 (HIV-1): 5.4 ± 0.5 µM
- CC50 at 72 h [1]: > 100 µM
- TSA ΔTm (° C.) [2]: −1.7 °C

SMILES: Cc1ccc(C)c2c1NC(=O)C2CC(=O)N[C@@H](Cc1ccccc1)C(=O)N(C)c1cccc(F)c1 (stereo partly drawn) [Example 7, (2S)-2-(2-(4,7-dimethyl-2-oxoindolin-3-yl)acetamido)-N-(3-fluorophenyl)-N-methyl-3-phenylpropanamide]
- EC50 (HIV-1): 5.2 ± 0.4 µM
- CC50 at 72 h [1]: 60 ± 6 µM
- TSA ΔTm (° C.) [2]: −1.8 °C

SMILES: Cc1ccc(C)c2c1NC(=O)C2CC(=O)N[C@@H](Cc1ccccc1)C(=O)N(C)c1ccc(Cl)cc1 (stereo partly drawn) [Example 8, (2S)—N-(4-chlorophenyl)-2-(2-(4,7-dimethyl-2-oxoindolin-3-yl)acetamido)-N-methyl-3-phenylpropanamide]
- EC50 (HIV-1): 2.8 ± 0.1 µM
- CC50 at 72 h [1]: 63 ± 13 µM
- TSA ΔTm (° C.) [2]: −1.3 °C

SMILES: Cc1ccc(C)c2c1NC(=O)C2CC(=O)N[C@@H](Cc1ccccc1)C(=O)N(C)c1cccc(Cl)c1 (stereo partly drawn) [Example 9, (2S)—N-(3-chlorophenyl)-2-(2-(4,7-dimethyl-2-oxoindolin-3-yl)acetamido)-N-methyl-3-phenylpropanamide]
- EC50 (HIV-1): 2.1 ± 0.2 µM
- CC50 at 72 h [1]: 43 ± 2 µM
- TSA ΔTm (° C.) [2]: −2.4 °C

SMILES: CN(C(=O)[C@H](Cc1ccccc1)NC(=O)Cc1ccc2ccccc2c1)c1ccccc1 [Example 10, (S)—N-methyl-2-(2-(naphthalen-2-yl)acetamido)-N,3-diphenylpropanamide]
- inhibition at 2 µM (HIV-1): 40%
- inhibition at 20 µM (HIV-1): 98%
- CC50 at 72 h [1]: < 50 µM
- TSA ΔTm (° C.) [2]: 4.8 °C

SMILES: Cc1ccc(N(C)C(=O)[C@H](Cc2ccccc2)NC(=O)Cc2ccc3ccccc3c2)cc1 [Example 11, (S)—N-methyl-2-(2-(naphthalen-2-yl)acetamido)-3-phenyl-N-(p-tolyl)propanamide]
- EC50 (HIV-1): 0.99 ± 0.005 µM
- CC50 at 72 h [1]: < 50 µM
- TSA ΔTm (° C.) [2]: 6.4 °C

SMILES: CN(C(=O)[C@H](Cc1ccccc1)NC(=O)Cc1ccc2ccccc2c1)c1ccc(Cl)cc1 [Example 12, (S)—N-(4-chlorophenyl)-N-methyl-2-(2-(naphthalen-2-yl)acetamido)-3-phenylpropanamide]
- EC50 (HIV-1): 0.63 ± 0.02 µM
- CC50 at 72 h [1]: < 50 µM
- TSA ΔTm (° C.) [2]: 7.0 °C

SMILES: CN(C(=O)[C@H](Cc1ccccc1)NC(=O)Cc1ccc2ccccc2c1)c1cccc(Cl)c1 [Example 13, (S)—N-(3-chlorophenyl)-N-methyl-2-(2-(naphthalen-2-yl)acetamido)-3-phenylpropanamide]
- inhibition at 2 µM (HIV-1): 0%
- inhibition at 20 µM (HIV-1): 94%
- CC50 at 72 h [1]: < 50 µM
- TSA ΔTm (° C.) [2]: 4.3 °C

SMILES: CN(C(=O)[C@H](Cc1ccccc1)NC(=O)Cc1ccc2ccccc2c1)c1cccc(F)c1 [Example 14, (S)—N-(3-fluorophenyl)-N-methyl-2-(2-(naphthalen-2-yl)acetamido)-3-phenylpropanamide]
- inhibition at 2 µM (HIV-1): 0%
- inhibition at 20 µM (HIV-1): 97%
- CC50 at 72 h [1]: < 50 µM
- TSA ΔTm (° C.) [2]: 5.2 °C

SMILES: CCN(C(=O)[C@H](Cc1ccccc1)NC(=O)Cc1ccc2ccccc2c1)c1ccccc1 [Example 15, (S)—N-ethyl-2-(2-(naphthalen-2-yl)acetamido)-N,3-diphenylpropanamide]
- inhibition at 2 µM (HIV-1): 46%
- inhibition at 20 µM (HIV-1): 97%
- CC50 at 72 h [1]: < 50 µM
- TSA ΔTm (° C.) [2]: 4.3 °C

SMILES: CN(C(=O)[C@H](Cc1ccccc1)NC(=O)Cc1cccc2ccccc12)c1ccccc1 [Example 16, (S)—N-methyl-2-(2-(naphthalen-1-yl)acetamido)-N,3-diphenylpropanamide]
- EC50 (HIV-1): 1.1 ± 0.04 µM
- CC50 at 72 h [1]: < 50 µM
- TSA ΔTm (° C.) [2]: 6.0 °C

SMILES: Cc1ccc(N(C)C(=O)[C@H](Cc2ccccc2)NC(=O)Cc2cccc3ccccc23)cc1 [Example 17, (S)—N-methyl-2-(2-(naphthalen-1-yl)acetamido)-3-phenyl-N-(p-tolyl)propanamide]
- EC50 (HIV-1): 1 ± 0.2 µM
- CC50 at 72 h [1]: < 50 µM
- TSA ΔTm (° C.) [2]: 5.7 °C

SMILES: O=C(Cc1c[nH]c2ccccc12)N[C@@H](Cc1ccccc1)c1ncccc1-c1ccc(Cl)cc1 [Example 54, (S)-2-(1H-indol-3-yl)-N-(2-phenyl-1-(3-(4-chlorophenyl)pyridin-2-yl)ethyl)acetamide]
- EC50 (HIV-1): 0.79 ± 0.25 µM
- TSA ΔTm (° C.) [2]: 7.7 ± 0.2 °C

SMILES: COc1ccc2[nH]cc(CC(=O)N[C@@H](Cc3ccccc3)c3ncccc3-c3ccc(Cl)cc3)c2c1 [Example 55, (S)-2-(5-methoxy-1H-indol-3-yl)-N-(2-phenyl-1-(3-(4-chlorophenyl)pyridin-2-yl)ethyl)acetamide]
- EC50 (HIV-1): 1.4 ± 0.7 µM
- TSA ΔTm (° C.) [2]: 7.8 ± 0.3 °C

SMILES: O=C(Cc1c[nH]c2ccc(O)cc12)N[C@@H](Cc1ccccc1)c1ncccc1-c1ccc(Cl)cc1 [Example 56, (S)-2-(5-hydroxy-1H-indol-3-yl)-N-(2-phenyl-1-(3-(4-chlorophenyl)pyridin-2-yl)ethyl)acetamide]
- EC50 (HIV-1): 0.31 ± 0.07 µM
- TSA ΔTm (° C.) [2]: 8.7 ± 0.3 °C

SMILES: CCn1cc(CC(=O)N[C@@H](Cc2ccccc2)c2ncccc2-c2ccc(Cl)cc2)c2ccccc21 [Example 57, (S)-2-(1-ethyl-1H-indol-3-yl)-N-(2-phenyl-1-(3-(4-chlorophenyl)pyridin-2-yl)ethyl)acetamide]
- EC50 (HIV-1): 2.7 ± 0.2 µM
- TSA ΔTm (° C.) [2]: 6.6 ± 0.2 °C

SMILES: CCn1cc(CC(=O)N[C@@H](Cc2ccccc2)c2ncccc2-c2ccc(Cl)cc2)c2cc(OC)ccc21 [Example 58, (S)-2-(1-ethyl-5-methoxy-1H-indol-3-yl)-N-(2-phenyl-1-(3-(4-chlorophenyl)pyridin-2-yl)ethyl)acetamide]
- EC50 (HIV-1): 3.6 ± 0.2 µM
- TSA ΔTm (° C.) [2]: 5.9 ± 0.2 °C

SMILES: COc1ccc2[nH]cc(CC(=O)N[C@@H](Cc3ccccc3)c3ncccc3-c3ccc(Br)cc3)c2c1 [Example 59, (S)-2-(5-methoxy-1H-indol-3-yl)-N-(2-phenyl-1-(3-(4-bromophenyl)pyridin-2-yl)ethyl)acetamide]
- EC50 (HIV-1): 2.1 ± 0.8 µM
- TSA ΔTm (° C.) [2]: 6.3 ± 0.6 °C

SMILES: CCn1cc(CC(=O)N[C@@H](Cc2ccccc2)c2ncccc2-c2ccc(Br)cc2)c2ccccc21 [Example 60, (S)-2-(1-ethyl-1H-indol-3-yl)-N-(2-phenyl-1-(3-(4-bromophenyl)pyridin-2-yl)ethyl)acetamide]
- EC50 (HIV-1): 3.2 ± 0.3 µM
- TSA ΔTm (° C.) [2]: 6.3 ± 0.1 °C

SMILES: COc1ccc2[nH]cc(CC(=O)N[C@@H](Cc3ccccc3)c3nccn3-c3ccc(Cl)cc3)c2c1 [Example 61, (S)-2-(5-methoxy-1H-indol-3-yl)-N-(2-phenyl-1-(1-(4-chlorophenyl)-1H-imidazol-2-yl)ethyl)acetamide]
- EC50 (HIV-1): 3.3 ± 0.03 µM
- TSA ΔTm (° C.) [2]: 4.0 ± 0.3 °C

SMILES: COc1ccc2[nH]cc(CC(=O)N[C@@H](Cc3ccccc3)c3nccn3-c3ccc(Br)cc3)c2c1 [Example 62, (S)-2-(5-methoxy-1H-indol-3-yl)-N-(2-phenyl-1-(1-(4-bromophenyl)-1H-imidazol-2-yl)ethyl)acetamide]
- EC50 (HIV-1): 3.5 ± 0.3 µM
- TSA ΔTm (° C.) [2]: 2.8 ± 0.3 °C

SMILES: COc1ccc2[nH]cc(CC(=O)N[C@@H](Cc3ccccc3)c3nccn3-c3ccc(I)cc3)c2c1 [Example 63, (S)-2-(5-methoxy-1H-indol-3-yl)-N-(2-phenyl-1-(1-(4-iodophenyl)-1H-imidazol-2-yl)ethyl)acetamide]
- EC50 (HIV-1): 3.3 ± 0.2 µM
- TSA ΔTm (° C.) [2]: 2.7 ± 0.1 °C

Reference: patent US11850247B2, “Antiviral compounds” (REGENTS OF THE UNIVERSITY OF MINNESOTA, priority 2020, dated 2023)
